Reference: US9593305B2, “Differentiation of pluripotent stem cells” (Janssen Biotech, Inc., priority 2008, dated 2017)

System: H1 human embryonic stem cells
Assay: Secondary assay: panel of compounds with growth factor combinations and muscimol, no activin A (Example 6, Table 5)
Type: cell-based
Conditions: no AA (with Wnt3a)
[1] = EGF + FGF4 + PDGF-AB + Muscimol

CN1CCC(=O)NCCCNc2ncccc2-c2ncnc(n2)Nc2cccc(c2)C1 [Compound 39, 9-Methyl-2,3,4,5,7,8,9,10-octahydro-16H-17,21-(azeno)-11,15-(metheno)pyrido[3,2-g][1,3,5,9,13,17]hexaazacyclotricosin-6(1H)-one]
Cell Number, % of positive control (EGF): 122.85%
Cell Number, Average Total Cell Number (EGF): 11615
Sox17 Expression, % of positive control (EGF): 0.09%
Sox17 Expression, Average Total Intensity (EGF): 1.49E+05
Cell Number, % of positive control (EGF + FGF4): 110.59%
Cell Number, Average Total Cell Number (EGF + FGF4): 10456
Sox17 Expression, % of positive control (EGF + FGF4): 2.98%
Sox17 Expression, Average Total Intensity (EGF + FGF4): 5.11E+06
Cell Number, % of positive control (EGF + FGF4 + PDGF-A + Muscimol): 96.28%
Cell Number, Average Total Cell Number (EGF + FGF4 + PDGF-A + Muscimol): 9103
Sox17 Expression, % of positive control (EGF + FGF4 + PDGF-A + Muscimol): 0.43%
Sox17 Expression, Average Total Intensity (EGF + FGF4 + PDGF-A + Muscimol): 7.32E+05
Cell Number, % of positive control (EGF + FGF4 + PDGF-A + VEGF): 84.33%
Cell Number, Average Total Cell Number (EGF + FGF4 + PDGF-A + VEGF): 7973
Sox17 Expression, % of positive control (EGF + FGF4 + PDGF-A + VEGF): 3.09%
Sox17 Expression, Average Total Intensity (EGF + FGF4 + PDGF-A + VEGF): 5.30E+06
Cell Number, % of positive control (EGF + FGF4 + PDGF-AB): 105.47%
Cell Number, Average Total Cell Number (EGF + FGF4 + PDGF-AB): 9972
Sox17 Expression, % of positive control (EGF + FGF4 + PDGF-AB): 0.94%
Sox17 Expression, Average Total Intensity (EGF + FGF4 + PDGF-AB): 1.62E+06
Cell Number, % of positive control [1]: 111.48%
Cell Number, Average Total Cell Number [1]: 10540
Sox17 Expression, % of positive control [1]: 1.29%
Sox17 Expression, Average Total Intensity [1]: 2.22E+06
Cell Number, % of positive control (EGF + PDGF-A + VEGF): 180.34%
Cell Number, Average Total Cell Number (EGF + PDGF-A + VEGF): 17050
Sox17 Expression, % of positive control (EGF + PDGF-A + VEGF): 2.82%
Sox17 Expression, Average Total Intensity (EGF + PDGF-A + VEGF): 4.84E+06
Cell Number, % of positive control (FGF4 + PDGF-A + VEGF): 93.67%
Cell Number, Average Total Cell Number (FGF4 + PDGF-A + VEGF): 8856
Sox17 Expression, % of positive control (FGF4 + PDGF-A + VEGF): 0.41%
Sox17 Expression, Average Total Intensity (FGF4 + PDGF-A + VEGF): 7.01E+05
